According to US5599904A, “Chimeric steroid hormone superfamily receptor proteins” (priority 1992, dated 1997):

What was measured:
[1] = biological target: T1, chimeric receptor hRGR (human retinoic acid receptor with hGR DNA-binding domain) (Homo sapiens, UniProt P10276, INS60IETQSSSSEEIVPSPPSPPPLPRPPKLCLVCSDEASGCHYGVLTCGSCKVFFKRAVEGQHNYLCAGRNDCIIDKIRRKNCPACRYRKCLQAGMNLES); test: Functional ligand identification assay: CAT induction in CV-1 cells cotransfected with pRShRGR and MTV-CAT; type: cell-based; details: for Induction of CAT activity of the hybrid receptor by natural and synthetic non-retinoid ligands: pRShRGR + pMTVCAT, single 1 μM dose (FIG. 3A legend); for Induction of CAT activity of the hybrid receptor (in words): pRShRGR + MTV-CAT, FIG. 2B at 100 nM, FIG. 3A increasing concentrations
T1 construct: expressed in transfected cells; host or cells: CV-1 (African Green monkey kidney) cells, cotransfected with pRShRGR and pMTVCAT
T1 sequence (P10276 with tags, fused parts or gaps isoform P10276-3 INS60IETQSSSSEEIVPSPPSPPPLPRPPKLCLVCSDEASGCHYGVLTCGSCKVFFKRAVEGQHNYLCAGRNDCIIDKIRRKNCPACRYRKCLQAGMNLES): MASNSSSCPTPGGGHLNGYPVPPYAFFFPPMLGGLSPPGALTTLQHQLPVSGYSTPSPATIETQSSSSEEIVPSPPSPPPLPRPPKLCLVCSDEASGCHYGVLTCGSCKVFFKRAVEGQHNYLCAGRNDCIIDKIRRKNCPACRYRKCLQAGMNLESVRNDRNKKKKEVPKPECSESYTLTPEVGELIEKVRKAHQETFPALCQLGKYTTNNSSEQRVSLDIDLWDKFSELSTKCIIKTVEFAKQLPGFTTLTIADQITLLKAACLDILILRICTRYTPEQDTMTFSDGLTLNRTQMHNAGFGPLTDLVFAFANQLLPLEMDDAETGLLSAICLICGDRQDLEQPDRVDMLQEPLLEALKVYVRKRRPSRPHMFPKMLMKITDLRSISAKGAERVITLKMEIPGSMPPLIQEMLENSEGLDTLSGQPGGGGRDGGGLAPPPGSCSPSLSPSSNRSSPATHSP
Text: Since the ligand for the gene product of phRAR1 was unknown, it was desirable to develop a quick and sensitive assay to reveal its identity. […] This chimera recognizes the glucocorticoid responsive element of the MMTV-LTR but stimulates transcription in an estrogen-dependent fashion (see Green, et al., (1987)). This led us to wonder if a general domain-swapping strategy could be exploited to identify the ligand-binding properties of a novel hormone receptor. To test this approach we first substituted the DNA-binding domain of the phRAR1 gene product with the well described DNA-binding domain from the hGR (FIG. 2A). (This chimeric construction, when expressed in suitable host cells, produces a hybrid receptor protein whose ligand-binding domain region must bind with a functional exogenous ligand before the ligand/receptor complex can bind to a GRE, thereby activating a glucocorticoid inducible promoter.)
To assay for the presence of a functional ligand the chimeric receptor gene was transfected into suitable host cells along with a suitable GRE linked reporter gene. CV-1 cells were used for the assay along with a MMTV-CAT reporter gene. (MMTV-CAT is carried on reporter plasmid, GM-CAT, which has been deposited with the American Type Culture Collection for patent purposes; see the section of this specification labeled, "Deposits"). […] For example, the growth hormone promoter can be functionally linked to the bacterial CAT gene. Since the growth hormone promoter contains a thyroid responsive transcription element, such a reporter plasmid can be used to assay hybrid thyroid receptor proteins. See the subheading: "Construction of Reporter and Expression Plasmids" in this specification. (Since mineralocorticoid receptors can activate GRE's, a reporter plasmid such as GM-CAT can be used to assay hybrid mineralocorticoid receptor proteins.)
Returning to the functional ligand identification assay, the transfected cells were then systematically challenged with a battery of candidate ligands and induction monitored by changes in CAT activity.
(§1) FIGS. 2A and 2B. 2A, Construction of the chimeric receptor hRGR. The domain-structure of the various constructions are shown schematically, the numbers correspond to the amino acid positions of each domain. The DNA-binding domains are represented by "DNA" and the ligand-binding domains by their respective inducers. The Nor1 and Xho1 sites created by site-directed mutagenesis to permit the exchange of the DNA-binding domains between receptors are indicated.
(§2) Methods. […] The mutant receptors were then transferred to the expression vector pRS (see Giguere, et al., (1986), and the Not1/Xho1 restriction fragment of pRShGRNX containing the hGR DNA-binding domain was introduced into pRShRnx between the Not1 and Xho1 sites to create pRShRGR. B, Cell transfection and CAT assay. The recombinant DNA constructs (5 μg each) were introduced into CV-1 cells by calcium phosphate coprecipitation (see Wigler, et al., (1979)). The cells were then cultured for two days in serum free media supplemented with Nutridoma (Boehringer Mannheim) in presence or absence of inducers. CV-1 cells were then prepared for CAT assays as described by Gorman, et al. (1982) and the assays performed for 3 h using 25 μg of protein extract. All experiments with retinol were conducted in subdued light.
(§3) FIGS. 3A and 3B. 3A, Dose-response to retinoids. […] The levels of CAT activity were plotted as percentages of the maximal response observed in this experiment. […] The values represent the mean of quadruplicate determinations.
Methods. 3A, CV-1 cell cotransfections and CAT assays were performed as described in FIG. 2.

[2] = tested on: hybrid receptors with an hTRβ carboxyl terminus; test: Hybrid thyroid/glucocorticoid receptor CAT assay, hybrids with hTRβ carboxyl terminus; type: cell-based, human; details: CV-1 cells, FIG. 9
Method: CV-1 cells were used as the receptor-deficient host cells that were transfected with expression plasmids that carry the chimeric RR/TR receptors, and reporter plasmids carrying the CAT reporter gene. […] Acetylated and non-acetylated forms of [^14 C]chloramphenicol were separated by thin layer chromatography, excised, and quantitated by liquid scintillation counting in Econofluor (DuPont) with 5% DMSO. β-galactosidase assays were performed as described by Herbomel et al. (1984). CAT activity is expressed as percent conversion divided by β-galactosidase activity.

[3] = tested on: alpha thyroid hormone receptor (rTRα); details: CV-1 cells, absence or presence of T3 (data not shown)
[4] = tested on: beta thyroid hormone receptor (hTRβ); details: CV-1 cells, absence or presence of T3 (data not shown)
[5] = biological target: T2, phRAR1 gene product (human retinoic acid receptor) (Homo sapiens, UniProt P10276); test: 3H-retinoic acid binding to cytosol extracts of COS-1 cells transfected with pRShRR; details: for Competition of 3H-retinoic acid binding: cytosol of transfected COS-1 cells, 2×10^-8 M 3H-retinoic acid, 1000-fold excess (2×10^-5 M) competitor, 4° C., 16 h
T2 sequence (P10276 1-462): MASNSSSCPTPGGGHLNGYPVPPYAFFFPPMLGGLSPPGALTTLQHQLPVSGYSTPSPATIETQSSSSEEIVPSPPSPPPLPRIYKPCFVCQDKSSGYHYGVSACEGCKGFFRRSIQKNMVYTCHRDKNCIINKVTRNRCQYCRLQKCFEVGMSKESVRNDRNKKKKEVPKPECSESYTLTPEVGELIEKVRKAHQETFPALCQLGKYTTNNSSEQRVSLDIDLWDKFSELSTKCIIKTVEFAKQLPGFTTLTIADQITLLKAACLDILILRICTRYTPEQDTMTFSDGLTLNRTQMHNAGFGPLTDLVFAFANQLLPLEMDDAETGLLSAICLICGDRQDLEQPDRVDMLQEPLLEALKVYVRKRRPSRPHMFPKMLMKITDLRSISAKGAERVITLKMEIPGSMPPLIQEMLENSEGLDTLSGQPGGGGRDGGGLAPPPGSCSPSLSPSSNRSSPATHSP
Method: as §3
Methods. 3A, CV-1 cell cotransfections and CAT assays were performed as described in FIG. 2. […] All other products were diluted in ethanol and control cultures received 0.1% solvent (v/v) in media. Dose-response curves of retinoid treatment were performed in triplicate. 3B, Subconfluent COS-1 cells were transfected with 10 μg/dish of a control plasmid (pRS) or pRShRR by the DEAE-Dextran method (see Deans, et al., (1984)). Cells were maintained for 2 days in DMEM with 5% charcoal-treated fetal calf serum, then harvested in TNE (40 mM tris-HCl pH 7.5, 150 mM NaCl, 1 mM EDTA) and lysed by Dounce homogenization in hypotonic buffer (50 mM tris-HCl pH 7.4, 0.1 mM EDTA, 5 mM dithiothreitol,10 mM NaMoO4, 10% glycerol, 0.5 mM phenylmethylsulfonyl fluoride) and centrifuged at 100,000×g for 30 min to yield the cytosol fraction. […] Specific binding was measured by the addition of 2×10^-5 M of competitors. Reactions were carried out at 4° C. for 16 h. […] Reactions were placed on filters for 1 min and then rinsed with 5 ml of washing buffer (50 mM tris-HCl pH 7.4, 0.1 mM EDTA, 0.1% Triton X-100). Filters were dried and counted by liquid scintillation spectrophotometry.

[6] = tested on: mutated human retinoic acid receptor with Not1 and Xho1 sites (pRShRRNX); test: CAT induction in CV-1 cells cotransfected with parent vector pRShRRNX and MTV-CAT; type: cell-based; details: pRShRRNX + MTVCAT, 100 nM, 2 days
Text: as §1, §2

[7] = tested on: human retinoic acid receptor (hRARα); test: CAT induction in CV-1 cells cotransfected with pRShRR and MTV-CAT; type: cell-based; details: pRShRR + MTVCAT, 100 nM, 2 days
Text: as §1, §2

[8] = tested on: human glucocorticoid receptor (hGR); test: CAT induction in CV-1 cells cotransfected with pRShGR and MTV-CAT; type: cell-based; details: pRShGR + MTVCAT, 100 nM, 2 days
Text: as §1, §2

C[C@H](CCCC(C)(C)O)[C@H]1CC[C@H]2[C@@H]3CC=C4C[C@@H](O)CC[C@]4(C)[C@H]3CC[C@]12C [25-OH-cholesterol]
Induction of CAT activity of the hybrid receptor by natural and synthetic non-retinoid ligands [1]: failed to induce CAT activity

N[C@@H](Cc1cc(I)c(Oc2ccc(O)c(I)c2)c(I)c1)C(=O)O [T3, 3,5,3'-triiodo-L-thyronine]
Activation of hybrid receptors by hormone [2]: activated
Activation of transcription from MTV-CAT (no TRE) [3]: neither the alpha nor the beta thyroid hormone receptor activates transcription
Activation of transcription from MTV-CAT (no TRE) [4]: neither the alpha nor the beta thyroid hormone receptor activates transcription

N[C@@H](Cc1cc(I)c(Oc2cc(I)c(O)c(I)c2)c(I)c1)C(=O)O [T4, thyroxine]
Induction of CAT activity of the hybrid receptor by natural and synthetic non-retinoid ligands [1]: failed to induce CAT activity

C=C1CC[C@H](O)C/C1=C/C=C1\CCC[C@]2(C)[C@@H]([C@H](C)CCCC(C)C)CC[C@@H]12 [Vitamin D3]
Induction of CAT activity of the hybrid receptor by natural and synthetic non-retinoid ligands [1]: failed to induce CAT activity
Competition of 3H-retinoic acid binding [5]: did not compete

C[C@]12CCC(=O)C=C1CC[C@@H]1[C@@H]2[C@@H](O)C[C@]2(C=O)[C@@H](C(=O)CO)CC[C@@H]12 [aldosterone]
Induction of CAT activity of the hybrid receptor by natural and synthetic non-retinoid ligands [1]: failed to induce CAT activity

C[C@]12CCC(=O)C=C1CC[C@@H]1[C@@H]2[C@@H](O)C[C@@]2(C)[C@H]1CC[C@]2(O)C(=O)CO [cortisol]
Induction of CAT activity of the hybrid receptor by natural and synthetic non-retinoid ligands [1]: failed to induce CAT activity

C[C@]12CCC(=O)C[C@@H]1CC[C@@H]1[C@@H]2CC[C@]2(C)[C@@H](O)CC[C@@H]12 [dihydrotestosterone]
Induction of CAT activity of the hybrid receptor by natural and synthetic non-retinoid ligands [1]: failed to induce CAT activity

CC(=O)[C@H]1CC[C@H]2[C@@H]3CCC4=CC(=O)CC[C@]4(C)[C@H]3CC[C@]12C [progesterone]
Induction of CAT activity of the hybrid receptor by natural and synthetic non-retinoid ligands [1]: failed to induce CAT activity

CC1=C(/C=C/C(C)=C/C=C/C(C)=C/C(=O)O)C(C)(C)CCC1 [retinoic acid]
Induction of CAT activity of the hybrid receptor (in words) [1]: dramatic increase in CAT activity
Effect upon CAT activity using parent vector pRShRRNX [6]: No effect upon CAT activity
Effect upon CAT activity using wild type gene product hRARα [7]: No effect upon CAT activity
Competition of 3H-retinoic acid binding [5]: fully competed
Induction of hGR (CAT activity) [8]: not induced

CC1=C(/C=C/C(C)=C/C=C/C(C)=C/CO)C(C)(C)CCC1 [retinol]
Induction of CAT activity of the hybrid receptor (in words) [1]: weak agonist
Competition of 3H-retinoic acid binding [5]: only partially

CCCCCCCCCCCCCCCC(=O)OC/C=C(C)/C=C/C=C(C)/C=C/C1=C(C)CCCC1(C)C [retinyl palmitate]
Induction of CAT activity of the hybrid receptor (in words) [1]: even weaker inducers

C[C@]12CC[C@H]3[C@@H](CCC4=CC(=O)CC[C@@]43C)[C@@H]1CC[C@@H]2O [testosterone]
Induction of CAT activity of the hybrid receptor by natural and synthetic non-retinoid ligands [1]: failed to induce CAT activity

^3 H-retinoic acid
Specific binding of 3H-retinoic acid by transfected cells ([5]; COS-1 cells transfected with pRShRR versus control plasmid pRS): increased capacity to specifically bind

estrogen
Induction of CAT activity of the hybrid receptor by natural and synthetic non-retinoid ligands [1]: failed to induce CAT activity
